Experimental data taken from ChEMBL document CHEMBL4359850, “Synthesis, in vivo and in silico anticonvulsant activity studies of new derivatives of 2-(2,4-dioxo-1,4-dihydroquinazolin-3(2H)-yl)acetamide” (Eur J Med Chem, 2019).

Assays:
Mus musculus [1] = assay: Anticonvulsive activity in pentylenetetrazole-induced seizure albino mouse model assessed as latecy time at 100 mg/kg, ig administered 30 mins prior to pentylenetetrazole challenge and mesured for 60 mins (reference value: 5.79 +/- 0.58 min); assay type: functional
Mus musculus [2] = assay: Anticonvulsive activity in pentylenetetrazole-induced seizure albino mouse model assessed as number of clonic and tonic convulsion at 100 mg/kg, ig administered 30 mins prior to pentylenetetrazole challenge and mesured per animal for 60 mins (reference value: 3.58 +/- 0.42); assay type: functional
Mus musculus [3] = assay: Anticonvulsive activity in pentylenetetrazole-induced seizure albino mouse model assessed as proportion of animals with clonic convulsion at 100 mg/kg, ig administered 30 mins prior to pentylenetetrazole challenge and mesured for 60 mins (reference value: 100 %); assay type: functional
Mus musculus [4] = assay: Anticonvulsive activity in pentylenetetrazole-induced seizure albino mouse model assessed as proportion of animals with tonic convulsion at 100 mg/kg, ig administered 30 mins prior to pentylenetetrazole challenge and mesured for 60 mins (reference value: 100%); assay type: functional
Mus musculus [5] = assay: Anticonvulsive activity in albino mouse assessed as protection against pentylenetetrazole-induced seizure by measuring severity of convulsion at 100 mg/kg, ig administered 30 mins prior to pentylenetetrazole challenge and mesured for 60 mins (reference value: 5.83 +/- 0.17); assay type: functional
Mus musculus [6] = assay: Anticonvulsive activity in pentylenetetrazole-induced seizure albino mouse model assessed as duration time of convulsion period at 100 mg/kg, ig administered 30 mins prior to pentylenetetrazole challenge and mesured for 60 mins (reference value: 12 +/- 1.34 min); assay type: functional
Mus musculus [7] = assay: Anticonvulsive activity in pentylenetetrazole-induced seizure albino mouse model assessed as lifetime of animal to death at 100 mg/kg, ig administered 30 mins prior to pentylenetetrazole challenge and mesured for 60 mins (reference value: 17.45 +/- 1.85 min); assay type: functional
Mus musculus [8] = assay: Anticonvulsive activity in pentylenetetrazole-induced seizure albino mouse model assessed as lethality at 100 mg/kg, ig administered 30 mins prior to pentylenetetrazole challenge and mesured for 60 mins (reference value: 91.7%); assay type: functional
[9] = Toxicity in albino mouse assessed as motor coordination impairment by measuring animal fall-off from rod before 1 min at 100 mg/kg, ig administered 30 mins prior to test by rotarod test (reference value: 17%); assay type: organism-based; details: in vivo, po
[10] = Toxicity in albino mouse assessed as motor coordination impairment by measuring animal fall-off from rod before 2 mins at 100 mg/kg, ig administered 30 mins prior to test by rotarod test (reference value: 33%); assay type: organism-based; details: in vivo, po
[11] = Toxicity in albino mouse assessed as motor coordination impairment by measuring animal fall-off from rod before 3 mins at 100 mg/kg, ig administered 30 mins prior to test by rotarod test (reference value: 33%); assay type: organism-based; details: in vivo, po, 0.05 h
[12] = Toxicity in albino mouse assessed as motor coordination impairment by measuring animal fall-off from rod before 5 mins at 100 mg/kg, ig administered 30 mins prior to test by rotarod test (reference value: 50%); assay type: organism-based; details: in vivo, po
[13] = Acute toxicity in albino mouse assessed as decrease in motor activity at 3000 to 5000 mg/kg, ig measured after 30 mins to 1 hr; assay type: organism-based; details: in vivo, po
[14] = Acute toxicity in ig dosed albino mouse measured for 14 days; assay type: organism-based; details: in vivo, po
[15] = Acute toxicity in albino mouse assessed as death at 1000 to 5000 mg/kg, ig measured for 14 days; assay type: organism-based; details: in vivo, po, 336 h
[16] = Acute toxicity in albino mouse assessed as lateral position at 1000 to 5000 mg/kg, ig measured for 14 days; assay type: organism-based; details: in vivo, po, 336 h
[17] = Acute toxicity in albino mouse assessed as blepharoptosis at 1000 to 5000 mg/kg, ig measured for 14 days; assay type: organism-based; details: in vivo, po, 336 h
[18] = Acute toxicity in albino mouse assessed as hypersalivation at 1000 to 5000 mg/kg, ig measured for 14 days; assay type: organism-based; details: in vivo, po, 336 h
[19] = Acute toxicity in albino mouse assessed as diarrhoea at 1000 to 5000 mg/kg, ig measured for 14 days; assay type: organism-based; details: in vivo, po, 336 h
[20] = Acute toxicity in albino mouse assessed as effect on muscle movement at 1000 to 5000 mg/kg, ig measured for 14 days; assay type: organism-based; details: in vivo, po, 336 h
[21] = Acute toxicity in albino mouse assessed as effect on skeletal muscle tone at 1000 to 5000 mg/kg, ig measured for 14 days; assay type: organism-based; details: in vivo, po, 336 h
Mus musculus [22] = assay: Anticonvulsive activity in pentylenetetrazole-induced seizure albino mouse model assessed as lengthened latecy of convulsion at 100 mg/kg, ig administered 30 mins prior to pentylenetetrazole challenge and mesured for 60 mins relative to control; assay type: functional
Mus musculus [23] = assay: Anticonvulsive activity in pentylenetetrazole-induced seizure albino mouse model assessed as decrease in severity of convulsion at 100 mg/kg, ig administered 30 mins prior to pentylenetetrazole challenge and mesured for 60 mins relative to control; assay type: functional
Mus musculus [24] = assay: Anticonvulsive activity in pentylenetetrazole-induced seizure albino mouse model assessed as decrease in duration of convulsive period at 100 mg/kg, ig administered 30 mins prior to pentylenetetrazole challenge and mesured for 60 mins relative to control; assay type: functional

Compound: O=C(Cn1c(=O)[nH]c2ccccc2c1=O)NCCCc1ccccc1
- Time (Mus musculus [1]): 15.51 min
- Activity (Mus musculus [2]): 1.2
- Activity (Mus musculus [3]): 80%
- Activity (Mus musculus [4]): 80%
- Activity (Mus musculus [5]): 4
- Time (Mus musculus [6]): 3.05 min
- Time (Mus musculus [7]): 12.16 min
- Activity (Mus musculus [8]): 40%
- Activity [9]: 17%
- Activity [10]: 33%
- Activity [11]: 50%
- Activity [12]: 50%

Compound: O=C(Cn1c(=O)[nH]c2ccccc2c1=O)NCCc1ccccc1
- Time (Mus musculus [1]): 11.43 min
- Activity (Mus musculus [2]): 1.8
- Activity (Mus musculus [3]): 100%
- Activity (Mus musculus [4]): 100%
- Activity (Mus musculus [5]): 5.6
- Time (Mus musculus [6]): 9.98 min
- Time (Mus musculus [7]): 17.79 min
- Activity (Mus musculus [8]): 80%
- Activity [9]: 33%
- Activity [10]: 50%
- Activity [11]: 50%
- Activity [12]: 67%

Compound: O=C(Cn1c(=O)[nH]c2ccccc2c1=O)NCc1ccc(Cl)cc1Cl
- Activity [13]: Toxic
- Time (Mus musculus [1]): 20.38 min
- Activity (Mus musculus [2]): 1
- Activity (Mus musculus [3]): 80%
- Activity (Mus musculus [4]): 40%
- Activity (Mus musculus [5]): 2.8
- Time (Mus musculus [6]): 0.45 min
- Activity (Mus musculus [8]): 0%
- Activity [9]: 17%
- Activity [10]: 50%
- Activity [11]: 50%
- Activity [12]: 67%
- LD50 at 336 h [14]: > 5000 mg/kg
- Activity [15]: Non-Toxic
- Activity [16]: Non-Toxic
- Activity [17]: Non-Toxic
- Activity [18]: Non-Toxic
- Activity [19]: Non-Toxic
- Activity [20]: Non-Toxic
- Activity [21]: Non-Toxic
- fold change (FC) (Mus musculus [22]): 3.5
- fold change (FC) (Mus musculus [23]): 2.1
- fold change (FC) (Mus musculus [24]): 26.7

Compound: COc1ccccc1CNC(=O)Cn1c(=O)[nH]c2ccccc2c1=O
- Time (Mus musculus [1]): 15.14 min
- Activity (Mus musculus [2]): 2.4
- Activity (Mus musculus [3]): 80%
- Activity (Mus musculus [4]): 80%
- Activity (Mus musculus [5]): 4.4
- Time (Mus musculus [6]): 7.25 min
- Time (Mus musculus [7]): 12.45 min
- Activity (Mus musculus [8]): 60%
- Activity [9]: 50%
- Activity [10]: 67%
- Activity [11]: 67%
- Activity [12]: 83%

Compound: O=C(Cn1c(=O)[nH]c2ccccc2c1=O)NCc1ccccc1
- Time (Mus musculus [1]): 4.96 min
- Activity (Mus musculus [2]): 3
- Activity (Mus musculus [3]): 100%
- Activity (Mus musculus [4]): 100%
- Activity (Mus musculus [5]): 5.6
- Time (Mus musculus [6]): 14.05 min
- Time (Mus musculus [7]): 17.5 min
- Activity (Mus musculus [8]): 80%
- Activity [9]: 17%
- Activity [10]: 33%
- Activity [11]: 50%
- Activity [12]: 50%
